Patent publication US20250282790A1 (Temple University-Of The Commonwealth System of Higher …, priority 2016, published 2025)

Target: 5HT7 receptors (Homo sapiens (Human), UniProt P34969)
Assay: Radiolabel Binding Studies for Serotonin 5-HT7 Receptors, Method 2 ([3H]-5HT competition; Ki and percent inhibition at 10 μM)
Details: radioligand competition binding
Description: Radiolabel Binding Studies for Serotonin 5-HT7 Receptors, Method 2:
A solution of the compound of the disclosure to be tested is prepared as a 1-mg/ml stock in Assay Buffer or DMSO according to its solubility. A similar stock of the reference compound chlorpromazine is also prepared as a positive control. Eleven dilutions (5×assay concentration) of the compound of the disclosure and chlorpromazine are prepared in the Assay Buffer by serial dilution to yield final corresponding assay concentrations ranging from 10 pM to 10 μM.
A stock concentration of 5 nM [^3H]-5-Hydroxytryptamine ([^3H]-5HT) is prepared in 50 mM Tris-HCl, 10 mM MgCl2, 1 mM EDTA, pH 7.4 (Assay Buffer). Aliquots (50 μl) of radioligand are dispensed into the wells of a 96-well plate containing 100 μl of Assay Buffer. Duplicate 50-μl aliquots of the compound of the disclosure test and chlorpromazine positive control reference compound serial dilutions are added.
Membrane fractions of cells expressing recombinant 5HT7 receptors (50 L) are dispensed into each well. The membranes are prepared from stably transfected cell lines expressing 5HT7 receptors cultured on 10-cm plates by harvesting PBS-rinsed monolayers, resuspending and lysing in chilled, hypotonic 50 mM Tris-HCl, pH 7.4, centrifuging at 20,000×g, decanting the supernatant and storing at −80° C.; the membrane preparations are resuspended in 3 ml of chilled Assay Buffer and homogenized by several passages through a 26 gauge needle before using in the assay.
The 250-μl reactions are incubated at room temperature for 1.5 hours, then harvested by rapid filtration onto 0.3% polyethyleneimine-treated, 96-well filter mats using a 96-well Filtermate harvester. Four rapid 500-μl washes are performed with chilled Assay Buffer to reduce non-specific binding. The filter mats are dried, then scintillant is added to the filters and the radioactivity retained on the filters is counted in a Microbeta scintillation counter.
Raw data (dpm) representing total radioligand binding (i.e., specific+non-specific binding) are plotted as a function of the logarithm of the molar concentration of the competitor (i.e., test or reference compound). Non-linear regression of the normalized (i.e., percent radioligand binding compared to that observed in the absence of test or reference compound) raw data is performed in Prism 4.0 (GraphPad Software) using the built-in three parameter logistic model describing ligand competition binding to radioligand-labeled sites:
where bottom equals the residual radioligand binding measured in the presence of 10 μM reference compound (i.e., non-specific binding) and top equals the total radioligand binding observed in the absence of competitor. The log IC50 (i.e., the log of the ligand concentration that reduces radioligand binding by 50%) is thus estimated from the data and used to obtain the Ki by applying the Cheng-Prusoff approximation:
where [ligand] equals the assay radioligand concentration and KD equals the affinity constant of the radioligand for the target receptor.
Compounds of the disclosure are also screened at a single concentration of 10 μM using the same method described for the Radiolabel Binding Studies for Serotonin 5HT7 receptors to determine the percent inhibition of [^3H]-5HT binding.

Chain of 5HT7 receptors (P34969 whole entry): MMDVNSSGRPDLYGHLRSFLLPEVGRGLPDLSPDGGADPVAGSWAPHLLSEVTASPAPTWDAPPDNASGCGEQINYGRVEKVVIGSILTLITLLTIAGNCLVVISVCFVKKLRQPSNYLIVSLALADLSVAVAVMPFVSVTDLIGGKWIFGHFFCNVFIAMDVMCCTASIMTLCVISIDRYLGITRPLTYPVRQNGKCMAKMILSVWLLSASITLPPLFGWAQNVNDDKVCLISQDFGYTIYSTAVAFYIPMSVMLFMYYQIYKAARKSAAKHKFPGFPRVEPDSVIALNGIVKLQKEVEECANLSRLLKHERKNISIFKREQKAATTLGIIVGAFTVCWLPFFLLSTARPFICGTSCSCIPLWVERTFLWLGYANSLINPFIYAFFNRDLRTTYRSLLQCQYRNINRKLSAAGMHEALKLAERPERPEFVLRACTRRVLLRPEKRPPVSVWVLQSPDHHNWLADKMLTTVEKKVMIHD

Q: With `CS(=O)(=O)N1CCC2(CC1)CC(CCN1CCN(c3ccc(O)cc3N3CCOCC3)CC1)OC2=O` (centres unmarked) [Example 21] as the molecule, how does the IC50 read?
A: 75 nM

Q: How did the IC50 turn out when `Cc1ccc(N2CCN(CCC3CC4(CCN(Cc5ccccc5)CC4)C(=O)O3)CC2)cc1` (centres unmarked) [Entry 1] was run?
A: 18 nM

Q: Which IC50 does the source give for `CS(=O)(=O)N1CCC2(CC1)CC(CCN1CCN(c3ccc(O)cc3)CC1)OC2=O` (centres unmarked) [Example 22] here?
A: 202 nM

Q: How did the IC50 turn out when `CC(=O)N1CCC2(CC1)CC(CCN1CCN(c3ccc(C)cc3)CC1)OC2=O` (centres unmarked) [Entry 4] was run?
A: 122 nM

Q: Which IC50 does the source give for `Cc1ccc(N2CCN(CCC3CC4(CCNCC4)C(=O)O3)CC2)cc1` (centres unmarked) [Entry 2] here?
A: 149 nM

Q: Which IC50 does the source give for `Cc1ccc(N2CCN(CCC3CC4(CCN(S(=O)(=O)c5ccccc5)CC4)C(=O)O3)CC2)cc1` (centres unmarked) [Entry 10] here?
A: 64 nM

Q: `Cc1ccc(N2CCN(CCC3CC4(CCN(S(C)(=O)=O)CC4)C(=O)O3)CC2)c(N2CCOCC2)c1` (centres unmarked) [Example 20] was tested. Which IC50 did it give?
A: 67 nM

Q: With `Cc1ccc(N2CCN(CCC3CC4(CCN(S(C)(=O)=O)CC4)C(=O)O3)CC2)cc1` (centres unmarked) [Entry 6] as the molecule, how does the IC50 read?
A: 93 nM

Q: With `Cc1nc2cccc(N3CCN(CCC4CC5(CCN(S(C)(=O)=O)CC5)C(=O)O4)CC3)c2[nH]1` (centres unmarked) [Entry 8] as the molecule, how does the IC50 read?
A: 46 nM

Q: With `Cc1ccc(N2CCN(CCC3CC4(CCN(S(=O)(=O)C5CCOCC5)CC4)C(=O)O3)CC2)cc1` (centres unmarked) [Example 13] as the molecule, how does the IC50 read?
A: 96 nM

Q: How did the IC50 turn out when `CNC(=O)N1CCC2(CC1)CC(CCN1CCN(c3ccc(C)cc3)CC1)OC2=O` (centres unmarked) [Entry 5] was run?
A: 102 nM

Q: `CS(=O)(=O)N1CCC2(CC1)CC(CCN1CCN(c3ccc(C#N)cc3N3CCOCC3)CC1)OC2=O` (centres unmarked) [Entry 19] was tested. Which IC50 did it give?
A: 461 nM

Q: How did the IC50 turn out when `Cc1ccc(N2CCN(CCC3CC4(CCN(S(=O)(=O)c5ccc(Cl)cc5)CC4)C(=O)O3)CC2)cc1` (centres unmarked) [Example 12] was run?
A: 108 nM

Q: How did the IC50 turn out when `COc1ccc(S(=O)(=O)N2CCC3(CC2)CC(CCN2CCN(c4ccc(C)cc4)CC2)OC3=O)cc1` (centres unmarked) [Entry 11] was run?
A: 77 nM

Q: How did the IC50 turn out when `CS(=O)(=O)N1CCC2(CC1)CC(CCN1CCN(c3ccccc3N3CCOCC3)CC1)OC2=O` (centres unmarked) [Entry 7] was run?
A: 34 nM

Q: With `COC(=O)N1CCC2(CC1)CC(CCN1CCN(c3ccc(C)cc3)CC1)OC2=O` (centres unmarked) [Entry 3] as the molecule, how does the IC50 read?
A: 81 nM

Q: Which IC50 does the source give for `CS(=O)(=O)N1CCC2(CC1)CC(CCN1CCN(c3ccc(Cl)cc3)CC1)OC2=O` (centres unmarked) [Entry 9] here?
A: 303 nM
